# Source: patent US20250208133A1, “SENESCENT CELL SURFACE MARKERS” (SENS RESEARCH FOUNDATION, priority 2022, published 2025)
# Tests used:
# Format in all cases: cell-based, human
# [1] = test system: senescent IMR-90 cells; test: xCELLigence RTCA impedance viability assay, senescent cells
# Description: (§1) Human IMR-90 fibroblasts (ATCC, USA) were treated with 300 nM of doxorubicin hydrochloride (Millipore Sigma, USA; Cat #504042) in DMEM complete media for 24 hours or ionizing radiation (10 Gy X-ray) and maintained in culture. Primary human endothelial cells were treated with 250 nM of doxorubicin in promo cell basal medium supplemented with Growth Medium MV 2 Supplement Pack for 24 hours and maintained in culture. Senescent cells were used 7-13 days following treatment.
# For measurement of background values, 50 μl of complete medium was added to E-Plates 96 (Agilent). Cells were seeded in a total of 200 μl of medium per well at a density of 10,000 cells per well. Cell attachment was monitored using the RTCA MP (Agilent) instrument and the RTCA software (Agilent). Media was replaced with media containing either DMSO, vacuolin-1 or apilimod. Cells treated with 0.2% Triton X-100 was used as a 100% dead cell positive control for cytotoxicity assays. After drug addition, impedance measurements were recorded every 15 minutes. All experiments were performed in at least 5 replicates for each dose. Changes in impedance were expressed as a cell index (CI) value, which derives from relative impedance changes corresponding to cellular coverage of the electrode sensors, normalized to baseline impedance values with medium only. To analyze the acquired data, CI values were exported, and percentage of attached cell surface was calculated in relation to positive controls and DMSO-treated cells.
# Senescent cells are known to employ several mechanisms to increase their survival. For example, increased expression of the pro-survival BCL-family proteins has been widely studied. In fact, BCL antagonism has been the basis of many senolytic drugs (see, e.g., Zhu, et al., Aging Cell. 2016 June; 15(3):428-35). Vacuolin-1 was used to determine if lysosomal exocytosis is a mechanism for senescent cell survival. Vacuolin-1 is a potent inhibitor of Phosphatidylinositol-3-phosphate 5-kinase type III (PIKfyve), which is a key player in lysosomal exocytosis allowing lysosomes to fuse with the plasma membrane. The viability assay was performed in senescent IMR-90 cells using xCELLigence Real-Time Cell Analysis (RTCA) system that uses label-free cellular impedance to monitor cell health and viability over time.
# [2] = Crystal violet staining cell viability, non-senescent cells; conditions: human, non-senescent IMR-90 fibroblasts, non-senescent cells, read-out: cell viability, quantification of adherent cells
# Description: (§2) Cell viability after 48 h of apilimod (1 μM) or vacuolin-1 (1 μM) treatment was estimated by crystal violet. Cells in 6-well cell culture plates (Greiner Bio-One; Cat #657160) were washed twice with PBS, incubated with 4% paraformaldehyde for 15 minutes at room temperature, then stained with 0.25% crystal violet for 10 minutes. Cells were washed with deionized water and imaged, 3 images per well.
# (§3) Apilimod is a clinical PIKfyve inhibitor. Apilimod was used to further validate the senolytic effects of PIKfyve inhibitors. […] To further characterize the potent cytotoxic effect of apilimod on non-senescent versus senescent cells, IMR-90 fibroblasts were treated with 1 μM of apilimod. […] Of note, the decrease in viable apilimod-treated non-senescent cells after 48 hours of treatment is likely in part due to a decrease in proliferation rather than viability of apilimod-treated cells.
# [3] = test system: non-senescent IMR-90 fibroblasts; test: as above; conditions: 1 μM, 48 hours
# Description: as §2, §3
# [4] = test system: senescent IMR-90 fibroblasts; test: Crystal violet staining cell viability, senescent cells; conditions: 48 hours
# Description: as §1, §2, §3
# [5] = test system: non-senescent (NS) IMR-90 cells; test: xCELLigence RTCA impedance viability assay, non-senescent cells; conditions: 48 hours of treatment with 1 μM
SMILES,senescent cell survival ([1]; 48 hours of treatment with 1 μM),senescent cell survival ([1]; 48 hours of treatment with 5 μM),senescent cell viability ([1]; dose response),"viability at 48 h, 1 µM [2] [%]","non-senescent cell viability, light microscopy of crystal violet-stained cells [3]","viability of senescent cells, light microscopy of crystal violet-stained cells ([4]; 1 μM)","viability at 1 µM ([4]; Homo sapiens, IMR-90, senescent condition, read-out: viable cells, quantification of adherent cells) [%]",mean normalized cell index [5],"mean normalized cell index ([1]; senescent cells, 48 hours of treatment with 1 μM)","selective killing of senescent cells by blocking lysosomal exocytosis ([1]; senescent vs NS IMR-90 cells, dose response)"
Cc1cccc(/C=N/Nc2cc(N3CCOCC3)nc(OCCc3ccccn3)n2)c1 [apilimod],No senescent cells survived,No senescent cells survived,dose-dependent declines in senescent cell viability,92,no effect,significant decrease,17,–,–,–
Ic1cccc(/C=N/Nc2nc(N3CCOCC3)nc(N(c3ccccc3)c3ccccc3)n2)c1 [vacuolin-1],–,–,–,–,–,–,–,1.2,0.4,selectively killed senescent IMR-90 cells in a dose-dependent manner
